Laboratory results: EP0109340A2, “Acid salts of 2-piperazinopyrimidine, process for their preparation and pharmaceutical compositions containing them” (priority 1982, dated 1984)

What was measured:
[1] = test system: toxicité de groupe due à l'amphétamine; assay: antagonism of amphetamine group toxicity (predictive of antipsychotic action); type: in vivo, souris Charles Fiver CD1; conditions: Mus musculus, ip; median effective dose against mortality due to amphetamine 30 mg/kg i.p.; compound i.p. 30 min before; mortality over 24 h; confidence limits 10,1 - 26,7; read-out: DE50 (limites de confiance)
From the text: L'activité antipsychotique d'un composé représentatif, le monomaléate de 2-(1-pipérazinyl)pyrimidine, a été déterminée dans le test de l'antagonisme de la toxicité de groupe due à l'amphétamine (J.H. Burn et al., Arch. Int. Pharmacodyn. Ther. 1958, 113, 290).
Le monomaléate de 2-(1-pipérazinyl)pyrimidine a Été administré à des doses croissantes par voie intrapéritonéale à des lots de 10 souris Charles Fiver CD1 pesant 20-22 g et groupées dans des cages de 22 cm de long, 12 cm de large et 12 cm de haute. Trente minutes après l'administration, on a injecté par voie intrapéritonéale de l'amphétamine à la dose de 30 mg/kg. La mortalité des animaux a été évaluée durant les 24 h qui ont suivi l'injection d'amphétamine et comparée, dans chaque groupe, à celle du groupe d'animaux témoins n'ayant reçu que le véhicule (sérum ghysiologigue).
Le tableau ci-dessous montre la dose efficace médiane (DE5G) d'antagonisme de la mortalité due à l'amphétamine.

[2] = test system: catalepsie provoquée par la prochlorpérazine; assay: antagonism of the onset of prochlorperazine-induced catalepsy (cork test, predictive of antidepressant activity); type: in vivo, rats mâles Wistar; conditions: 1 h before prochlorperazine 10 mg/kg s.c., read 5 h later
From the text: L'activité antidépressive des composés de l'invention a été évaluée dans le test de l'antagonisme vis-à-vis de l'installation de la catalepsie provoquée par la prochlorpérazine (K. Eizière et al., Arzneimittel Forschung, 1982, 32 (II), 824).
Un composé représentatif de l'invention, à savoir le monomaléate de 2-(1-pipérazinyl)pyrimidine, a été administré par voie intrapéritonéale à des groupes de 10 rats mâles Wistar pesant 220-240 g; des animaux de contrôle ont été en même temps traités par du sérum physiologique. Une heure après, les animaux ont reçu, par voie sous-cutanée, de la prochlcrpérazine à une dose de 10 mg/kg. Cinq heures après cette administration, le nombre d'animaux cataleptiques a été estimé par le test du bouchon. Ce test consiste à positionner les animaux de telle sorte qu'ils puissent maintenir pendant au moins 20 seconds leurs pattes en appui sur une colonne formée de trois bouchons de liège superposés (hauteur totale 11 cm). Les performances réalisées pour chaque groupe d'animaux ont été comparées à celles du groupe d'animaux témoins n'ayant reçu que le véhicule et la prcchlorpérazine.
Le tableau ci-dessous montre le pourcentage d'antagonisme de l'installation de la catalepsie provoquée par la prochlorpérazine.

[3] = test system: comportement de rotation chez la souris après lésion unilatérale du striatum; assay: rotation behaviour after unilateral 6-hydroxydopamine lesion of the striatum (dopaminergic mechanism); type: in vivo, souris femelles Charles River CD1; conditions: oral, dose corresponding to 0,15 mg/kg free base; for activité dans le temps (rotations): course over 1, 3 and 6 h; for activité dans le temps (rotations) / somme algébrique des rotations ipsilatérales et contralatérales à la lésion: result in words; for somme algébrique des rotations ipsilatérales et contralatérales à la lésion: versus controls
From the text: Le mécanisme dopaminergique d'un composé représentatif de l'invention, la 2-(1-pipérazinyl)pyrimidine mcno-L (+) - tartrate, a été étudié en comparaison avec la base libre correspondante et son chlorhydrate par l'analyse du comportement de rotation chez la souris après lésion unilatérale du striatum (P. Protais et al. J. Pharmacol. 1976, 7, 251).
Des souris femelles Charles River CD1 pesant de 20 à 24 g ont préalablement fait l'objet d'une lésion unilatérale du striatum par injection stéréotaxique de 6-hydroxydopamine à raison de 8 mcg par animal. Une semaine après cette opération, la 2-(1-pipérazinyl)pyrimidine mono-L(+)-tartrate, la 2-(l-pipérazinyl)pyrimidine chlorhydrate et la base libre ont été administrées par voie orale à des groupes de 6 souris à une dose correspondant à 0,15 mg/kg de base libre. Le nombre de rotations à été évalué, pendant 2 minutes, 1, 3 et 6 heures après l'administration des trois produits. Les rotations ipsilatérales à la lésion ont été comptées positivement, celles contralatérales ont été comptées négativement. La somme algébrique des rotations pour chaque groupe d'animaux traités a été comparée à celle du groupe d'animaux témoins n'ayant reçu que le véhicule (sérum physiologique).
Le Tableau IV ci-dessous montre la variation pour cent, par rapport aux animaux témoins, des rotations.

[4] = free base, tested within a series of compounds; literature; cited from earlier work

| Structure (SMILES) | ED50 [1] | % d'antagonisme ([2]; dose 0,1 mg/kg i.p.) | % d'antagonisme ([2]; dose 1 mg/kg i.p.) | variation négative (variation pour cent des rotations par rapport aux animaux témoins) ([3]; 6th hour) | activité dans le temps (rotations) [3] | somme algébrique des rotations ipsilatérales et contralatérales à la lésion [3] | activité analgésique ou antifilariale [4] |
| --- | --- | --- | --- | --- | --- | --- | --- |
| c1cnc(N2CCNCC2)nc1 [2-(1-pipérazinyl)pyrimidine monomaléate, monomaléatede 2-(l-pipérazinyl)pyrimidine] | 16.5 mg/kg | 20% | 80% |  |  |  |  |
| c1cnc(N2CCNCC2)nc1 [2-(1-pipérazinyl)pyrimidine monc-L(+)-tartrate] [mono-L(+)-tartratede 2-(1-pipérazinyl)pyrimidine] |  |  |  | > 100% | son activité augmente significativement dans le temps |  |  |
| c1cnc(N2CCNCC2)nc1 [base libre, 2-(1-pipérazinyl)pyrimidine] |  |  |  |  | tendence à la diminution de l'activité dans le temps | réduit d'une façon significative | aucun n'a montré d'activité analgésique ou antifilariale |
| c1cnc(N2CCNCC2)nc1 [chlorhydrate, 2-(l-pipérazinyl)pyrimidine chlorhydrate] |  |  |  |  | inactif aussi dans le temps | n'a pas d'effet significatif |  |
